Experimental findings from patent publication US11986532B2 (Arvinas Operations, Inc., priority 2021, dated 2024) are described below.

Bounds are passed on as bounds.

The target of this experiment is T1, BCL6 (Homo sapiens, UniProt P41182).
T1 construct: endogenous in cells; host or cells: T47D breast cancer epithelial cells
The experiment can be described thus: Immunofluorescence protocol for high content imaging of BCL6 (degradation) in T47D cells, 3 days compound treatment. Format: cell-based. The following applies: for Dmax: T47D, read-out: Mean Dmax (%)** category; for DC50: read-out: Mean DC50 (nM)* category. The gist of the method: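 Read-out: high-content imaging of anti-BCL6 immunofluorescence (Alexa-488 secondary) with CellMask and Hoechst counterstains, 10×, 4 fields/well. Cells had 3 days of compound exposure at 37° C, 5% CO2, 11-point 3-fold series from a final top of 0.1 or 1 μM.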

What is called Dmax is the largest share of the target that was removed. By DC50 is commonly meant the concentration at which degradation of the target reaches its halfway point. For the compound `CNC(=O)COc1cc2cc(Nc3nc(N4CCC(O[C@H]5C[C@H](N6CCN(c7cc(C)c8c(c7)C(=O)N(C7CCC(=O)NC7=O)C8=O)CC6)C5)CC4)ncc3Cl)ccc2n(C(C)C)c1=O` (stereo partly drawn) [Compound 378, 2-({6-[(5-chloro-2-{4-[(1r,3r)-3-{4-[2-(2,6-dioxopiperidin-3-yl)-7-methyl-1,3-dioxo-2,3-dihydro-1H-isoindol-5-yl]piperazin-1-yl}cyclobutoxy]piperidin-1-yl}pyrimidin-4-yl)amino]-2-oxo-1-(propan-2-yl)-1,2-dihydroquinolin-3-yl}oxy)-N-methylacetamide], the Dmax lay in the range of 50 to 70% and the DC50 fell in the range of 10 to 50 nM.

Turning to `CNC(=O)COc1cc2cc(Nc3nc(N4CCC(O[C@H]5C[C@H](N6CCN(c7cc(OC)c8c(c7)C(=O)N(C7CCC(=O)NC7=O)C8=O)CC6)C5)CC4)ncc3Cl)ccc2n(C(C)C)c1=O` (stereo partly drawn) [Compound 379, 2-({6-[(5-chloro-2-{4-[(1r,3r)-3-{4-[2-(2,6-dioxopiperidin-3-yl)-7-methoxy-1,3-dioxo-2,3-dihydro-1H-isoindol-5-yl]piperazin-1-yl}cyclobutoxy]piperidin-1-yl}pyrimidin-4-yl)amino]-2-oxo-1-(propan-2-yl)-1,2-dihydroquinolin-3-yl}oxy)-N-methylacetamide], the Dmax fell in the range of 50 to 70% and the DC50 was below 10 nM.

On to `CNC(=O)COc1cc2c(F)c(Nc3nc(N4CCC(O[C@H]5C[C@H](N6CCC(c7ccc8c(c7F)CN([C@H]7CCC(=O)NC7=O)C8=O)CC6)C5)CC4)ncc3Cl)ccc2n(C(C)C)c1=O` [Compound 380, 2-({6-[(5-chloro-2-{4-[(1r,3r)-3-(4-{2-[(3S)-2,6-dioxopiperidin-3-yl]-4-fluoro-1-oxo-2,3-dihydro-1H-isoindol-5-yl}piperidin-1-yl)cyclobutoxy]piperidin-1-yl}pyrimidin-4-yl)amino]-5-fluoro-2-oxo-1-(propan-2-yl)-1,2-dihydroquinolin-3-yl}oxy)-N-methylacetamide], for which the maximal degradation (Dmax) fell in the range of 50 to 70% and the DC50 is below 10 nM.

On to `CNC(=O)COc1cc2c(F)c(Nc3nc(N4CCC(O[C@H]5C[C@H](N6CCC(c7ccc8c(c7F)CN([C@@H]7CCC(=O)NC7=O)C8=O)CC6)C5)CC4)ncc3Cl)ccc2n(C(C)C)c1=O` [Compound 381, 2-({6-[(5-chloro-2-{4-[(1r,3r)-3-(4-{2-[(3R)-2,6-dioxopiperidin-3-yl]-4-fluoro-1-oxo-2,3-dihydro-1H-isoindol-5-yl}piperidin-1-yl)cyclobutoxy]piperidin-1-yl}pyrimidin-4-yl)amino]-5-fluoro-2-oxo-1-(propan-2-yl)-1,2-dihydroquinolin-3-yl}oxy)-N-methylacetamide], for which the Dmax is at least 70% and the DC50 is below 10 nM.

`CNC(=O)COc1cc2cc(Nc3nc(N4CCC(F)(CN5CCC6(CC5)CN(c5ccc7c(c5)CN(C5CCC(=O)NC5=O)C7=O)C6(C)C)CC4)ncc3Cl)ccc2n(C(C)C)c1=O` (stereo not drawn) [Compound 382, 2-{[6-({5-chloro-2-[4-({2-[2-(2,6-dioxopiperidin-3-yl)-1-oxo-2,3-dihydro-1H-isoindol-5-yl]-1,1-dimethyl-2,7-diazaspiro[3.5]nonan-7-yl}methyl)-4-fluoropiperidin-1-yl]pyrimidin-4-yl}amino)-2-oxo-1-(propan-2-yl)-1,2-dihydroquinolin-3-yl]oxy}-N-methylacetamide]: the Dmax was at least 70% and the DC50 is below 10 nM.

As to `CNC(=O)COc1cc2cc(Nc3nc(N4CCC(OC5CCC6(CC5)CN(c5ccc7c(c5Cl)CN(C5CCC(=O)NC5=O)C7=O)C6)CC4)ncc3Cl)ccc2n(C(C)C)c1=O` (stereo not drawn) [Compound 383, 2-{[6-({5-chloro-2-[4-({2-[4-chloro-2-(2,6-dioxopiperidin-3-yl)-1-oxo-2,3-dihydro-1H-isoindol-5-yl]-2-azaspiro[3.5]nonan-7-yl}oxy)piperidin-1-yl]pyrimidin-4-yl}amino)-2-oxo-1-(propan-2-yl)-1,2-dihydroquinolin-3-yl]oxy}-N-methylacetamide], the Dmax was at least 70% and the DC50 was below 10 nM.

Regarding `CNC(=O)COc1cc2cc(Nc3nc(N4CCC(O[C@H]5C[C@H](N6CCC(c7ccc8c(c7F)CN([C@@H]7CCC(=O)NC7=O)C8=O)CC6)C5)CC4)ncc3Cl)ccc2n(C(C)C)c1=O` [Compound 384, 2-({6-[(5-chloro-2-{4-[(1r,3r)-3-(4-{2-[(3R)-2,6-dioxopiperidin-3-yl]-4-fluoro-1-oxo-2,3-dihydro-1H-isoindol-5-yl}piperidin-1-yl)cyclobutoxy]piperidin-1-yl}pyrimidin-4-yl)amino]-2-oxo-1-(propan-2-yl)-1,2-dihydroquinolin-3-yl}oxy)-N-methylacetamide], the maximal degradation (Dmax) lay within 50 to 70% and the DC50 is below 10 nM.

As for `CNC(=O)COc1cc2cc(Nc3nc(N4CCC(O[C@H]5C[C@H](N6CCC(c7ccc8c(c7F)CN([C@H]7CCC(=O)NC7=O)C8=O)CC6)C5)CC4)ncc3Cl)ccc2n(C(C)C)c1=O` [Compound 385, 2-({6-[(5-chloro-2-{4-[(1r,3r)-3-(4-{2-[(3S)-2,6-dioxopiperidin-3-yl]-4-fluoro-1-oxo-2,3-dihydro-1H-isoindol-5-yl}piperidin-1-yl)cyclobutoxy]piperidin-1-yl}pyrimidin-4-yl)amino]-2-oxo-1-(propan-2-yl)-1,2-dihydroquinolin-3-yl}oxy)-N-methylacetamide], the greatest degradation seen (Dmax) fell in the range of 50 to 70% and the 50% degradation concentration (DC50) was below 10 nM.

With `CNC(=O)COc1cc2cc(Nc3nc(N4CCC(O[C@H]5C[C@H](N6CCN(c7c(F)cc8c(c7F)CN(C7CCC(=O)NC7=O)C8=O)CC6)C5)CC4)ncc3Cl)ccc2n(C(C)C)c1=O` (stereo partly drawn) [Compound 386, 2-({6-[(5-chloro-2-{4-[(1r,3r)-3-{4-[2-(2,6-dioxopiperidin-3-yl)-4,6-difluoro-1-oxo-2,3-dihydro-1H-isoindol-5-yl]piperazin-1-yl}cyclobutoxy]piperidin-1-yl}pyrimidin-4-yl)amino]-2-oxo-1-(propan-2-yl)-1,2-dihydroquinolin-3-yl}oxy)-N-methylacetamide], the Dmax is 50 to 70% and the DC50 is below 10 nM.

For `CNC(=O)COc1cc2cc(Nc3nc(N4CCC(O[C@H]5C[C@H](N6CCN(c7ccc8c(c7)C(=O)N(C7CCC(=O)NC7=O)C8=O)[C@H](C)C6)C5)CC4)ncc3Cl)ccc2n(C(C)C)c1=O` (stereo partly drawn) [Compound 387, 2-({6-[(5-chloro-2-{4-[(1r,3r)-3-[(3R)-4-[2-(2,6-dioxopiperidin-3-yl)-1,3-dioxo-2,3-dihydro-1H-isoindol-5-yl]-3-methylpiperazin-1-yl]cyclobutoxy]piperidin-1-yl}pyrimidin-4-yl)amino]-2-oxo-1-(propan-2-yl)-1,2-dihydroquinolin-3-yl}oxy)-N-methylacetamide], the Dmax lay within 50 to 70% and the DC50 is below 10 nM.

On to `CNC(=O)COc1cc2cc(Nc3nc(N4CCC(O[C@H]5C[C@H](N6CCN(c7ccc8c(c7F)CN([C@H]7CCC(=O)NC7=O)C8=O)CC6)C5)CC4)ncc3Cl)ccc2n(C(C)C)c1=O` [Compound 388, 2-({6-[(5-chloro-2-{4-[(1r,3r)-3-(4-{2-[(3S)-2,6-dioxopiperidin-3-yl]-4-fluoro-1-oxo-2,3-dihydro-1H-isoindol-5-yl}piperazin-1-yl)cyclobutoxy]piperidin-1-yl}pyrimidin-4-yl)amino]-2-oxo-1-(propan-2-yl)-1,2-dihydroquinolin-3-yl}oxy)-N-methylacetamide], for which the Dmax was in the range of 50 to 70% and the DC50 was below 10 nM.

For the compound `CNC(=O)COc1cc2c(F)c(Nc3nc(N4CCC(F)(CN5CCC6(CC5)CN(c5ccc7c(c5)CN(C5CCC(=O)NC5=O)C7=O)C6)CC4)ncc3Cl)ccc2n(C(C)C)c1=O` (stereo not drawn) [Compound 389, 2-{[6-({5-chloro-2-[4-({2-[2-(2,6-dioxopiperidin-3-yl)-1-oxo-2,3-dihydro-1H-isoindol-5-yl]-2,7-diazaspiro[3.5]nonan-7-yl}methyl)-4-fluoropiperidin-1-yl]pyrimidin-4-yl}amino)-5-fluoro-2-oxo-1-(propan-2-yl)-1,2-dihydroquinolin-3-yl]oxy}-N-methylacetamide], the Dmax is at least 70% and the DC50 is below 10 nM.

With `CNC(=O)COc1cc2c(F)c(Nc3nc(N4CCC(F)(CN5CCC6(CC5)CN(c5ccc7c(c5F)CN(C5CCC(=O)NC5=O)C7=O)C6)CC4)ncc3Cl)ccc2n(C(C)C)c1=O` (stereo not drawn) [Compound 390, 2-{[6-({5-chloro-2-[4-({2-[2-(2,6-dioxopiperidin-3-yl)-4-fluoro-1-oxo-2,3-dihydro-1H-isoindol-5-yl]-2,7-diazaspiro[3.5]nonan-7-yl}methyl)-4-fluoropiperidin-1-yl]pyrimidin-4-yl}amino)-5-fluoro-2-oxo-1-(propan-2-yl)-1,2-dihydroquinolin-3-yl]oxy}-N-methylacetamide], the Dmax is at least 70% and the DC50 was below 10 nM.

On to `CNC(=O)COc1cc2cc(Nc3nc(N4CCC(O[C@H]5C[C@H](N6CCN(c7ccc8c(c7)C(=O)N(C7CCC(=O)NC7=O)C8=O)[C@@H](C)C6)C5)CC4)ncc3Cl)ccc2n(C(C)C)c1=O` (stereo partly drawn) [Compound 391, 2-({6-[(5-chloro-2-{4-[(1r,3r)-3-[(3S)-4-[2-(2,6-dioxopiperidin-3-yl)-1,3-dioxo-2,3-dihydro-1H-isoindol-5-yl]-3-methylpiperazin-1-yl]cyclobutoxy]piperidin-1-yl}pyrimidin-4-yl)amino]-2-oxo-1-(propan-2-yl)-1,2-dihydroquinolin-3-yl}oxy)-N-methylacetamide], for which the Dmax is at least 70% and the DC50 was below 10 nM.

As for `CNC(=O)COc1cc2cc(Nc3nc(N4CCC(O[C@H]5C[C@H](N6CCN(c7ccc8c(c7F)CN([C@@H]7CCC(=O)NC7=O)C8=O)CC6)C5)CC4)ncc3Cl)ccc2n(C(C)C)c1=O` [Compound 392, 2-({6-[(5-chloro-2-{4-[(1r,3r)-3-(4-{2-[(3R)-2,6-dioxopiperidin-3-yl]-4-fluoro-1-oxo-2,3-dihydro-1H-isoindol-5-yl}piperazin-1-yl)cyclobutoxy]piperidin-1-yl}pyrimidin-4-yl)amino]-2-oxo-1-(propan-2-yl)-1,2-dihydroquinolin-3-yl}oxy)-N-methylacetamide], the Dmax was at least 70% and the DC50 was below 10 nM.
